From patent publication US7307095B2, “Inhibitors of cathepsin S” (IRM LLC, priority 2003, dated 2007)

Assays:
Format in all cases: biochemical
Cathepsin B = Cathepsin B (Homo sapiens, UniProt P07858); assay: Cathepsin B inhibition, fluorogenic peptide substrate kinetic assay (selectivity ratio vs cathepsin S); settings: ratio of cathepsin B inhibition constant to cathepsin S inhibition constant
Protocol: (§1) Kinetic measurements are performed in a total reaction volume of 30 μl in 384-well microtiter plates. […] Control reactions in the absence of inhibitor are performed in replicates of 24. The reactions are initiated by adding the substrate, acetyl-histidine-proline-valine-lysine-amino carbamoyl coumarin, to a final concentration of 10 μM. The rate of substrate hydrolysis is measured by monitoring the increase in fluorescence at an excitation wavelength of 380 nm and an emission wavelength of 450 nm that results from cleavage of the aniline bond in the substrate by the enzyme. The apparent inhibition constants for the compounds are determined from the enzyme progress curves ([…]. Elrod, et al. Anal Biochem 2000, 286(1), 45-50) and are then used to calculate the inhibition constants for competitive inhibitors. Selectivity for cathepsin S in the presence of cathepsin isozymes was determined by the ratio of the cathepsin isozyme inhibition constant of a compound of the present invention to the cathepsin S inhibition constant of the same compound.

Cathepsin K = target: T1, Cathepsin K (Homo sapiens, UniProt P43235); assay: Cathepsin K inhibition, fluorogenic peptide substrate kinetic assay (selectivity ratio vs cathepsin S); settings: ratio of cathepsin K inhibition constant to cathepsin S inhibition constant
T1 sequence (P43235 115-329): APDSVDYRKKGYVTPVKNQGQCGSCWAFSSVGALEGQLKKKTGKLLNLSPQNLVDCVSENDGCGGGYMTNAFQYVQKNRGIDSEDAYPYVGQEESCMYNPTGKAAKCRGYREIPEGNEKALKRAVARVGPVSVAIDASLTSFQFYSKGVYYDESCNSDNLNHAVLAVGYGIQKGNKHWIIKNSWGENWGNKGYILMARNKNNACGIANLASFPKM
Protocol: as §1, with “acetyl-lysine-histidine-proline-lysine-amino” for “acetyl-histidine-proline-valine-lysine-amino”, “40” for “10”

Cathepsin L = Cathepsin L (Homo sapiens, UniProt P07711); assay: Cathepsin L inhibition, fluorogenic peptide substrate kinetic assay (selectivity ratio vs cathepsin S); settings: ratio of cathepsin L inhibition constant to cathepsin S inhibition constant
Protocol: as §1, with “The optimal substrate for cathepsin L, acetyl-histidine-lysine-phenylalanine-lysine-amino carbamoyl coumarin, was identified from screening a combinatorial library of fluorogenic peptide substrates (Harris, J. L., B. J. Backes, et al. Proc Natl Acad Sci USA 2000, 97(14), 7754-9). Kinetic” for “Kinetic”, “acetyl-histidine-lysine-phenylalanine-lysine-amino” for “acetyl-histidine-proline-valine-lysine-amino”, “20” for “10”

Cathepsin S = Cathepsin S (Homo sapiens, UniProt P25774); assay: Cathepsin S inhibition, fluorogenic peptide substrate kinetic assay; settings: Cathepsin S inhibition constant; read-out: Ki Cat. S
Protocol: The optimal substrate for cathepsin S, acetyl-histidine-proline-valine-lysine-amino carbamoyl coumarin, was identified from screening a combinatorial library of fluorogenic peptide substrates (Harris, J. L., B. J. Backes, et al. Proc Natl Acad Sci USA 2000, 97(14), 7754-9). Kinetic measurements are performed in a total reaction volume of 30 μl in 384-well microtiter plates. […] Control reactions in the absence of inhibitor are performed in replicates of 24. The reactions are initiated by adding the substrate, acetyl-histidine-proline-valine-lysine-amino carbamoyl coumarin, to a final concentration of 50 μM. The rate of substrate hydrolysis is measured by monitoring the increase in fluorescence at an excitation wavelength of 380 nm and an emission wavelength of 450 nm that results from cleavage of the aniline bond in the substrate by the enzyme. The apparent inhibition constants for the compounds are determined from the enzyme progress curves (Kuzmic, P., K. C. Elrod, et al. Anal Biochem 2000, 286(1), 45-50) and are then used to calculate the inhibition constants for competitive inhibitors.

Sequence of Cathepsin S (P25774 115-331, species assumed): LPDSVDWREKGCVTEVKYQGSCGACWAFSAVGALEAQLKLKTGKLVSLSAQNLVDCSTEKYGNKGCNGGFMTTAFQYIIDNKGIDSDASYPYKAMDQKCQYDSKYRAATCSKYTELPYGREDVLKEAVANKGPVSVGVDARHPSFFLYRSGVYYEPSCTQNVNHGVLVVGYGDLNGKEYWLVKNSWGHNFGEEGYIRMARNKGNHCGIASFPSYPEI
Sequence of Cathepsin L (P07711 114-333, species assumed): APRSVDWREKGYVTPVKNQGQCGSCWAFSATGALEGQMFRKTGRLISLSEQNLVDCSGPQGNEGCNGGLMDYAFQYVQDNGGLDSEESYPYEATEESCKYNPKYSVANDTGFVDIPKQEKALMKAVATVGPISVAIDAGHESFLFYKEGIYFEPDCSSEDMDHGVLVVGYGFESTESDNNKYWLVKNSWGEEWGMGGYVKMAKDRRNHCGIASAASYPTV

Structure (SMILES)	Selectivity for Cat. S over Cat. B (Cathepsin B)	Selectivity for Cat. S over Cat. K (Cathepsin K)	Selectivity for Cat. S over Cat. L (Cathepsin L)	Ki (Cathepsin S)
CC(C)(C)OC(=O)C[C@@H](CN1CCc2cc(F)ccc21)NC(=O)[C@H](CC1CCCCC1)Nc1nc2ccccc2o1 [Example 9, 3-(S)-[2-(S)-(Benzooxazol-2-ylamino)-3-cyclohexyl-propionylamino]-4-(5-fluoro-2,3-dihydro-indol-1-yl)-butyric acid tert-butyl ester]	+++ (+++, >1000)	++ (++, >100)	++ (++, >100)	< 100 nM
O=C(N[C@H](CNc1ccc(F)cc1)COCc1ccccc1)[C@H](CC1CCCCC1)Nc1nc2ccccc2o1 [Example 11, 2-(S)-(Benzooxazol-2-ylamino)-N-[1-(R)-benzyloxymethyl-2-(4-fluoro-phenylamino)-ethyl]-3-cyclohexyl-propionamide]	++ (++, >100)	++ (++, >100)	++ (++, >100)	< 100 nM
CC(C)(C)C[C@H](Nc1nc2ccccc2o1)C(=O)N[C@H](CN1CCc2cc(F)ccc21)CS(C)(=O)=O [Example 12, (S)-2-(Benzooxazol-2-ylamino)-4,4-dimethyl-pentanoic acid (R)-[2-(5-fluoro-2,3-dihydro-indol-1-yl)-1-methanesulfonylmethyl-ethyl]-amide]	+++ (+++, >1000)	++ (++, >100)	+++ (+++, >1000)	< 100 nM
O=C(NCCN1CCc2cc(F)ccc21)[C@H](CC1CCCCC1)Nc1nc2ccccc2s1 [Example 16, 2-(S)-(Benzothiazol-2-ylamino)-3-cyclohexyl-N-[2-(5-fluoro-2,3-dihydro-indol-1-yl)-ethyl]-propionamide]	++ (++, >100)	++ (++, >100)	+ (+, >10)	< 1000 nM
COc1ccc(NCCNC(=O)[C@H](CC2CCCCC2)Nc2nc3ccccc3s2)cc1 [Example 17, 2-(S)-(Benzothiazol-2-ylamino)-3-cyclohexyl-N-[2-(4-methoxy-phenylamino)-ethyl]-propionamide]	+++ (+++, >1000)	+++ (+++, >1000)	++ (++, >100)	< 100 nM
CC(C)(C)C[C@H](Nc1cnccn1)C(=O)NCCN1CCc2cc(F)ccc21 [Example 18, (S)-4,4-Dimethyl-2-(pyrazin-2-ylamino)-pentanoic acid [2-(5-fluoro-2,3-dihydro-indol-1-yl)-ethyl]-amide]	+ (+, >10)	+ (+, >10)	+ (+, >10)	< 10000 nM
O=C(NCCNc1ccc(F)cc1)[C@H](CC1CCCCC1)Nc1nc2ccc(Cl)cc2s1 [Example 21, 2-(S)-(6-Chloro-benzothiazol-2-ylamino)-3-cyclohexyl-N-[2-(4-fluoro-phenylamino)-ethyl]-propionamide]	++ (++, >100)	+ (+, >10)	+ (+, >10)	< 1000 nM
CCOC(=O)C[C@@H](CN1CCc2cc(F)ccc21)NC(=O)[C@H](CC1CCCCC1)Nc1nc2ccc(Cl)cc2s1 [Example 30, 3-(S)-[2-(S)-(6-Chloro-benzothiazol-2-ylamino)-3-cyclohexyl-propionylamino]-4-(5-fluoro-2,3-dihydro-indol-1-yl)-butyric acid ethyl ester]	+++ (+++, >1000)	+++ (+++, >1000)	++ (++, >100)	< 100 nM
